Test results reported in patent EP3741750A1, “4-(1H-1,2,3-TRIAZOL-1-YL)PYRROLIDINE-2-CARBOXYLIC ACID DERIVATIVES HAVING ACTIVITY AGAINST PAIN” (ESTEVE PHARMACEUTICALS, S.A., priority 2019, dated 2020).

Molecular target: Human α2δ-1 subunit of Cav2.2 calcium channel (Homo sapiens, UniProt P54289)
Test: Human α2δ-1 subunit of Cav2.2 calcium channel assay ([3H]-Gabapentin radioligand binding)
Settings: Human α2δ-1 enriched membranes, 15 nM [3H]-Gabapentin, 60 min at 27 °C
Method: Human α2δ-1 subunit of Cav2.2 calcium channel assay
Human α2δ-1 enriched membranes (2.5 µg) were incubated with 15 nM of radiolabeled [3H]-Gabapentin in assay buffer containing Hepes-KOH 10mM, pH 7.4. NSB (non specific binding) was measured by adding 10 µM pregabalin. The binding of the tested compound was measured at either one concentration (% inhibition at 1 or 10 µM) or five different concentrations to determine affinity values (Ki). After 60 min incubation at 27 °C, binding reaction was terminated by filtering through Multiscreen GF/C (Millipore) presoaked in 0.5 % polyethyleneimine in Vacuum Manifold Station, followed by 3 washes with ice-cold filtration buffer containing 50 mM Tris-HCI, pH 7.4. Filter plates were dried at 60 °C for 1 h and 30 µL of scintillation cocktail were added to each well before radioactivity reading. Readings were performed in a Trilux 1450 Microbeta radioactive counter (Perkin Elmer).

Sequence of Human α2δ-1 subunit of Cav2.2 calcium channel (P54289 25-1103): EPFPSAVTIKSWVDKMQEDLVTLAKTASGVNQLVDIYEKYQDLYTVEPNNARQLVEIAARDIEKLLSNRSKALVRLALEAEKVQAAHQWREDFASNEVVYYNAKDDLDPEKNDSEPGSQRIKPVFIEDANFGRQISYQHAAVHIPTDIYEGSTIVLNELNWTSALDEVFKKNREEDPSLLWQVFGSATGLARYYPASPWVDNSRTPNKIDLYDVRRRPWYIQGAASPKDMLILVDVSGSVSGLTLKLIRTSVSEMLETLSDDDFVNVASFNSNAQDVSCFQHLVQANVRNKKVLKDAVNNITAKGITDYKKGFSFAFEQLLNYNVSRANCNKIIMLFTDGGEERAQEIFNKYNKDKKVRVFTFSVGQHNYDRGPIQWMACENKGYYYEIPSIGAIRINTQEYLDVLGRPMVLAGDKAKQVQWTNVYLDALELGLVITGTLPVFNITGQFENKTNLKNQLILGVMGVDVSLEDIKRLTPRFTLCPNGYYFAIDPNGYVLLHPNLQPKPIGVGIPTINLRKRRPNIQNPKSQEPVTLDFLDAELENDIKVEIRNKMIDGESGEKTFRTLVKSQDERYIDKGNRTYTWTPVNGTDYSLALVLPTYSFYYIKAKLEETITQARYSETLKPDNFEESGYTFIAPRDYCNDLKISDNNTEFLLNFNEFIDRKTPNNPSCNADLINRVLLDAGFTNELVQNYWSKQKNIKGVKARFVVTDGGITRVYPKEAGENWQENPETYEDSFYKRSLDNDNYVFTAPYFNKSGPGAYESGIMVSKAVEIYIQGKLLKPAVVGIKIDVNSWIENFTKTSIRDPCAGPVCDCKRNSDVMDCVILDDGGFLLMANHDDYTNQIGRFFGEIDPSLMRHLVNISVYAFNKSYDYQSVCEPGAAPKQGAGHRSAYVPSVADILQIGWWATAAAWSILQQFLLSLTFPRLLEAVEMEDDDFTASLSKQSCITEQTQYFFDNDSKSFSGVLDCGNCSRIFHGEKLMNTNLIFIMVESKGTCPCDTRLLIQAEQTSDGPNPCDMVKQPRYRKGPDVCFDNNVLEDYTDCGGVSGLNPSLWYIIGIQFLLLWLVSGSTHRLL

| Molecule | Ki |
| --- | --- |
| O=C(O)[C@@H]1C[C@H](n2cc(-c3cccc(F)c3)nn2)CN1 [Example 1, (2S,4S)-4-(4-(3-Fluorophenyl)-1H-1,2,3-triazol-1-yl)pyrrolidine-2-carboxylic acid] | < 0.5 µM |
| O=C(O)[C@@H]1C[C@H](n2cc(-c3cccc(Cl)c3)nn2)CN1 [Example 2, (2S,4S)-4-(4-(3-chlorophenyl)-1H-1,2,3-triazol-1-yl)pyrrolidine-2-carboxylic acid] | < 0.5 µM |
| COc1ccccc1-c1cn([C@@H]2CN[C@H](C(=O)O)C2)nn1 [Example 3, (2S,4S)-4-(4-(2-methoxyphenyl)-1H-1,2,3-triazol-1-yl)pyrrolidine-2-carboxylic acid] | ≥ 5 µM |
| COc1cccc(-c2cn([C@@H]3CN[C@H](C(=O)O)C3)nn2)c1 [Example 4, (2S,4S)-4-(4-(3-methoxyphenyl)-1H-1,2,3-triazol-1-yl)pyrrolidine-2-carboxylic acid] | ≥ 5 µM |
| COc1ccc(-c2cn([C@@H]3CN[C@H](C(=O)O)C3)nn2)cc1 [Example 6, (2S,4S)-4-(4-(4-methoxyphenyl)-1H-1,2,3-triazol-1-yl)pyrrolidine-2-carboxylic acid] | ≥ 5 µM |
| O=C(O)[C@@H]1C[C@H](n2cc(-c3ccccc3)nn2)CN1 [Example 7, (2S,4S)-4-(4-phenyl-1H-1,2,3-triazol-1-yl)pyrrolidine-2-carboxylic acid] | 0.5 to 5 µM |
| Cc1cccc(-c2cn([C@@H]3CN[C@H](C(=O)O)C3)nn2)c1 [Example 8, (2S,4S)-4-(4-(m-tolyl)-1H-1,2,3-triazol-1-yl)pyrrolidine-2-carboxylic acid] | ≥ 5 µM |
| O=C(O)[C@@H]1C[C@H](n2cc(-c3ccccn3)nn2)CN1 [Example 9, (2S,4S)-4-(4-(pyridin-2-yl)-1H-1,2,3-triazol-1-yl)pyrrolidine-2-carboxylic acid] | 0.5 to 5 µM |
| O=C(O)[C@@H]1C[C@H](n2cc(-c3ccc(F)c(F)c3)nn2)CN1 [Example 10, (2S,4S)-4-(4-(3,4-difluorophenyl)-1H-1,2,3-triazol-1-yl)pyrrolidine-2-carboxylic acid] | < 0.5 µM |
| COc1ccc(-c2cn([C@@H]3CN[C@H](C(=O)O)C3)nn2)c(Cl)c1 [Example 11, (2S,4S)-4-(4-(2-chloro-4-methoxyphenyl)-1H-1,2,3-triazol-1-yl)pyrrolidine-2-carboxylic acid] | ≥ 5 µM |
| O=C(O)[C@@H]1C[C@H](n2cc(-c3ccccc3Cl)nn2)CN1 [Example 12, (2S,4S)-4-(4-(2-chlorophenyl)-1 H-1,2,3-triazol-1-yl)pyrrolidine-2-carboxylic acid] | 0.5 to 5 µM |
| O=C(O)[C@@H]1C[C@H](n2cc(-c3ccc(Cl)cc3Cl)nn2)CN1 [Example 13, (2S,4S)-4-(4-(2,4-dichlorophenyl)-1H-1,2,3-triazol-1-yl)pyrrolidine-2-carboxylic acid] | ≥ 5 µM |
| O=C(O)[C@@H]1C[C@H](n2cc(-c3ccc(Cl)c(Cl)c3)nn2)CN1 [Example 14, (2S,4S)-4-(4-(3,4-dichlorophenyl)-1H-1,2,3-triazol-1-yl)pyrrolidine-2-carboxylic acid] | 0.5 to 5 µM |
| O=C(O)[C@@H]1C[C@H](n2cc(-c3cc(F)cc(F)c3)nn2)CN1 [Example 15, (2S,4S)-4-(4-(3,5-difluorophenyl)-1H-1,2,3-triazol-1-yl)pyrrolidine-2-carboxylic acid] | ≥ 5 µM |
| O=C(O)[C@@H]1C[C@H](n2cc(Cc3ccccc3)nn2)CN1 [Example 16, (2S,4S)-4-(4-benzyl-1H-1,2,3-triazol-1-yl)pyrrolidine-2-carboxylic acid] | ≥ 5 µM |
| O=C(O)[C@@H]1C[C@H](n2cc(-c3ccc(Br)cc3)nn2)CN1 [Example 17, (2S,4S)-4-(4-(4-bromophenyl)-1 H-1,2,3-triazol-1-yl)pyrrolidine-2-carboxylic acid] | 0.5 to 5 µM |
| O=C(O)[C@@H]1C[C@H](n2cc(-c3cccnc3)nn2)CN1 [Example 18, (2S,4S)-4-(4-(pyridin-3-yl)-1H-1,2,3-triazol-1-yl)pyrrolidine-2-carboxylic acid] | ≥ 5 µM |
| O=C(O)[C@@H]1C[C@H](n2cc(-c3ccncc3)nn2)CN1 [Example 19, (2S,4S)-4-(4-(pyridin-4-yl)-1H-1,2,3-triazol-1-yl)pyrrolidine-2-carboxylic acid] | ≥ 5 µM |
| O=C(O)[C@@H]1C[C@H](n2cc(-c3cncc(Cl)c3)nn2)CN1 [Example 20, (2S,4S)-4-(4-(5-chloropyridin-3-yl)-1H-1,2,3-triazol-1-yl)pyrrolidine-2-carboxylic acid] | ≥ 5 µM |
| N#Cc1cccc(-c2cn([C@@H]3CN[C@H](C(=O)O)C3)nn2)c1 [Example 21, (2S,4S)-4-(4-(3-cyanophenyl)-1H-1,2,3-triazol-1-yl)pyrrolidine-2-carboxylic acid] | ≥ 5 µM |
| N#Cc1ccc(-c2cn([C@@H]3CN[C@H](C(=O)O)C3)nn2)cc1 [Example 22, (2S,4S)-4-(4-(4-cyanophenyl)-1H-1,2,3-triazol-1-yl)pyrrolidine-2-carboxylic acid] | ≥ 5 µM |
| O=C(O)[C@@H]1C[C@H](n2cc(Cc3cccc(Cl)c3)nn2)CN1 [Example 23, (2S,4S)-4-(4-(3-chlorobenzyl)-1 H-1,2,3-triazol-1-yl)pyrrolidine-2-carboxylic acid] | ≥ 5 µM |
| O=C(O)[C@@H]1C[C@H](n2cc(-c3cccc(Br)c3)nn2)CN1 [Example 24, (2S,4S)-4-(4-(3-bromophenyl)-1 H-1,2,3-triazol-1-yl)pyrrolidine-2-carboxylic acid] | 0.5 to 5 µM |
| CN(C)Cc1cc(F)cc(-c2cn([C@@H]3CN[C@H](C(=O)O)C3)nn2)c1 [Example 25, (2S,4S)-4-(4-(3-((dimethylamino)methyl)-5-fluorophenyl)-1 H-1,2,3-triazol-1-yl)pyrrolidine-2-carboxylic acid] | ≥ 5 µM |
| CNCc1cc(F)cc(-c2cn([C@@H]3CN[C@H](C(=O)O)C3)nn2)c1 [Example 26, (2S,4S)-4-(4-(3-fluoro-5-((methylamino)methyl)phenyl)-1H-1,2,3-triazol-1-yl)pyrrolidine-2-carboxylic acid] | ≥ 5 µM |
| O=C(O)[C@@H]1C[C@H](n2cc(-c3cc(Cl)cc(Cl)c3)nn2)CN1 [Example 27, (2S,4S)-4-(4-(3,5-dichlorophenyl)-1H-1,2,3-triazol-1-yl)pyrrolidine-2-carboxylic acid] | ≥ 5 µM |
| CN(Cc1ccccc1)Cc1cc(F)cc(-c2cn([C@@H]3CN[C@H](C(=O)O)C3)nn2)c1 [Example 28, (2S,4S)-4-(4-(3-((benzyl(methyl)amino)methyl)-5-fluorophenyl)-1H-1,2,3-triazol-1-yl)pyrrolidine-2-carboxylic acid] | ≥ 5 µM |
| O=C(O)[C@@H]1C[C@H](n2cc(Cc3ccc(Cl)cc3)nn2)CN1 [Example 30, (2S,4S)-4-(4-(4-chlorobenzyl)-1 H-1,2,3-triazol-1-yl)pyrrolidine-2-carboxylic acid] | ≥ 5 µM |
| (2S,4S)-4-(4-(3-((benzylamino)methyl)-5-fluorophenyl)-1H-1,2,3-triazol-1-yl)pyrrolidine-2-carboxylic acid [Example 29] | ≥ 5 µM |
| (2S,4S)-4-(4-(4-fluorophenyl)-1 H-1,2,3-triazol-1-yl)pyrrolidine-2-carboxylic acid [Example 5] | 0.5 to 5 µM |
